Data: patent US6734186B1, “Compounds for the treatment of female sexual dysfunction” (Pfizer Inc., priority 1999, dated 2004)
“Also recorded” adds a separate entry of the source. Like-named read-outs stand apart in the source and are kept apart here.

Tests used:
isolated rabbit vagina = test: Relaxation of precontracted (1 μM phenylephrine) isolated rabbit vaginal strips; type: cell-based
Description: 3.7 (a). Rabbit vagina in vitro preparation:—Female New Zealand white rabbits (2.0-3.0 kg) were killed by cervical dislocation. The abdominal cavity was opened and the vagina excised. Tissue strips were mounted longitudinally in Wesley Co. 5 ml silanised organ chambers with braided silk sutures (6/0 gauge) at an initial resting tension of 1.5 g in Krebs bicarbonate buffer maintained at 37° C. and gassed with 95%O2/5%CO2. The upper ligature of each tissue strip was attached to a 10 g capacity force-displacement transducer and changes in isometric force were measured and recorded using a DART in vitro data capture system. Tissues were allowed to equilibrate for 1.5 hours and were regularly washed with Krebs.
Each tissue was contracted using 1 μM bath concentration of phenylephrine. […] Tissues then received either a test agent (eg NEP or PDE inhibitor) or DMSO vehicle (time matched control).
For the purpose of curve fitting the minimum relaxation response was constrained to 0% and the maximum relaxation response was allowed to free fit.

[1] = system: human vaginal smooth muscles cell cultures; details: VIP 0.5 μM; Traish 1999; cited from earlier work
[2] = system: anaesthetised rabbit model of sexual arousal; test: Increase in vaginal blood flow after iv infusion of vasoactive agents, anaesthetised rabbit model of sexual arousal (laser Doppler); type: in vivo
Description: (§1) A ventral midline incision was made, at the caudal end of the pubis, to expose the pubic area. Connective tissue was removed to expose the tunica of the clitoris, ensuring that the wall was free from small blood vessels. The external vaginal wall was also exposed by removing any connective tissue. One laser Doppler flow probe was inserted 3 cm into the vagina, so that half the probe shaft was still visible. A second probe was positioned so that it lay just above the external clitoral wall. The position of these probes was then adjusted until a signal was obtained. A second probe was placed just above the surface of a blood vessel on the external vaginal wall. Both probes were clamped in position.
(§2) Vaginal and clitoral blood flow was recorded either as numbers directly from the Flowmeter using Po-ne-mah data acquisition software (Ponemah Physiology Platform, Gould Instrument Systems Inc), or indirectly from Gould chart recorder trace. Calibration was set at the beginning of the experiment (0-125 ml/min/100 g tissue).
An initial infusion of Hepsaline (50UI/ml) was infused to act as a negative control.

[3] = system: anaesthetised rabbit model of sexual arousal; test: Increase in clitoral blood flow after iv infusion of vasoactive agents, anaesthetised rabbit model; type: in vivo; details: VIP 200 μg/kg iv infusion
Description: as §1, §2

anaesthetised rabbit = system: anaesthetised rabbit
Description: Female New Zealand rabbits (˜2.5 kg) were pre-medicated with a combination of Medetomidine (Domitor®) 0.5 ml/kg i.m., and Ketamine (Vetalar®) 0.25 ml/kg i.m. whilst maintaining oxygen intake via a face mask. The rabbits were tracheotomised using a Portex™ uncuffed endotracheal tube 3 ID., connected to ventilator and maintained at a ventilation rate of 30-40 breaths per minute, with an approximate tidal volume of 18-20 ml, and a maximum airway pressure of 10 cm H2O. Anaesthesia was then switched to Isoflurane and ventilation continued with O2 at 2 l/min. The right marginal ear vein was cannulated using a 23G or 24G catheter, and Lactated Ringer solution perfused at 0.5 ml/min. The rabbit was maintained at 3% Isoflurane during invasive surgery, dropping to 2% for maintenance anaesthesia.
The left groin area of the rabbit was shaved and a vertical incision was made approximately 5 cm in length along the thigh. The femoral vein and artery were exposed, isolated and then cannulated with a PVC catheter (17G) for the infusion of drugs and compounds. Cannulation was repeated for the femoral artery, inserting the catheter to a depth of 10 cm to ensure that the catheter reached the abdominal aorta. This arterial catheter was linked to a Gould system to record blood pressure. Samples for blood gas analysis were also taken via the arterial catheter. Systolic and diastolic pressures were measured, and the mean arterial pressure calculated using the formula (diastolic x2÷systolic)+3. Heart rate was measured via the pulse oxymeter and Po-ne-mah data acquisition software system (Ponemah Physiology Platform, Gould Instrument Systems Inc).

CC[C@H](C)[C@H](NC(=O)[C@H](CO)NC(=O)[C@H](CC(N)=O)NC(=O)[C@H](CC(C)C)NC(=O)[C@H](Cc1ccc(O)cc1)NC(=O)[C@H](CCCCN)NC(=O)[C@H](CCCCN)NC(=O)[C@@H](NC(=O)[C@H](C)NC(=O)[C@H](CCSC)NC(=O)[C@H](CCC(N)=O)NC(=O)[C@H](CCCCN)NC(=O)[C@H](CCCNC(=N)N)NC(=O)[C@H](CC(C)C)NC(=O)[C@H](CCCNC(=N)N)NC(=O)[C@@H](NC(=O)[C@H](Cc1ccc(O)cc1)NC(=O)[C@H](CC(N)=O)NC(=O)[C@H](CC(=O)O)NC(=O)[C@@H](NC(=O)[C@H](Cc1ccccc1)NC(=O)[C@@H](NC(=O)[C@H](C)NC(=O)[C@H](CC(=O)O)NC(=O)[C@H](CO)NC(=O)[C@@H](N)Cc1c[nH]cn1)C(C)C)[C@@H](C)O)[C@@H](C)O)C(C)C)C(=O)N[C@@H](CC(C)C)C(=O)N[C@@H](CC(N)=O)C(N)=O [VIP, Vasoactive intestinal peptide]
relaxation of precontracted isolated vagina (isolated rabbit vagina; VIP 0.1 μM): circa 80% | EC50 (isolated rabbit vagina; precontracted with 1 μM phenylephrine, read-out: EC50 for relaxation in isolated vaginal tissue): 18.8 ± 0.6 nM | effect on cAMP levels in vaginal smooth muscle cell cultures [1]: no effect; also recorded: fails to elevate | increase in vaginal blood flow ([2]; VIP 60 μg/kg intravenous): 24.7±3.6 ml/min/100 g tissue | time blood flow remained elevated above basal post-infusion ([2]; VIP 60 μg/kg intravenous): about 11 minutes | increase in vaginal blood flow ([2]; VIP 6.0 g/kg (so in the source)): 7.5±1.3 ml/min/100 g tissue | increase in clitoral blood flow [3]: 115% | increase in heart rate (anaesthetised rabbit; VIP 6.0 μg/kg iv): 16±4 beats per minute | reduction in mean arterial blood pressure (anaesthetised rabbit; VIP 6.0 μg/kg iv): 13.2±0.7 mm Hg | increase in heart rate (anaesthetised rabbit; VIP 60.0 μg/kg iv): 111±30 beats per minute | reduction in mean arterial blood pressure (anaesthetised rabbit; VIP 60.0 μg/kg iv): 14.7±1.37 mm Hg | subsequent increase in mean arterial blood pressure (anaesthetised rabbit; VIP 60.0 μg/kg iv, following heart rate increase): 8.5±1.4 mm Hg | effect on mean arterial blood pressure (anaesthetised rabbit; anaesthetised rabbit): significant depression
